One experiment concerns the target SpNanA (Streptococcus pneumoniae, UniProt P62575). The experiment is described as follows: biochemical. The following applies: read-out: IC50 against SpNanA; Neu5Acα2–3GalβpNP as substrate.
The target in the next experiment is AuSialidase (Paenarthrobacter ureafaciens, UniProt Q5W7Q2). Put plainly: Sialidase inhibition, Neu5Acα2–3GalβpNP as substrate. The following applies: 0.1 mM inhibitor. It is filed as biochemical, Arthrobacter ureafaciens.
In a further experiment the test system is viral sialidases. The following applies: cited from earlier work.
A further experiment addresses BiNanH2 (Bifidobacterium longum subsp. infantis, UniProt A0ACD7UU12). Put plainly: Sialidase inhibition, Neu5Acα2–3GalβpNP as substrate. It is filed as biochemical. The following applies: read-out: IC50 against BiNanH2; Neu5Acα2–3GalβpNP as substrate.
A further experiment addresses PmST1 (Pasteurella multocida, UniProt Q15KI8). It is filed as biochemical. To be noted: 0.1 mM inhibitor.
A further experiment concerns the target SpNanB (Streptococcus pneumoniae serotype 4, UniProt Q54727). The experiment is described as follows: Sialidase inhibition, Neu5Acα2–3GalβpNP as substrate. It is filed as biochemical. To be noted: 0.1 mM inhibitor.
The next experiment has as its target CpNanH (Clostridium perfringens, UniProt P10481). It is filed as biochemical.
The target in experiment [1] is human cytosolic sialidase hNEU2 (Homo sapiens, UniProt Q9Y3R4). Put plainly: Sialidase inhibition, Neu5Acα2–3GalβpNP as substrate. The following applies: 0.1 mM inhibitor. The format is biochemical.
For a further experiment, the system named is SpNanC. The experiment is described as above. The following applies: 0.1 mM inhibitor. It is filed as biochemical, Streptococcus pneumoniae.
A further experiment concerns the target VcSialidase (Vibrio cholerae serotype O1, UniProt P0C6E9). The experiment is described as follows: biochemical.
Another experiment concerns human NEU1. The following applies: cited from earlier work.

human cytosolic sialidase hNEU2, sequence (Q9Y3R4 whole entry): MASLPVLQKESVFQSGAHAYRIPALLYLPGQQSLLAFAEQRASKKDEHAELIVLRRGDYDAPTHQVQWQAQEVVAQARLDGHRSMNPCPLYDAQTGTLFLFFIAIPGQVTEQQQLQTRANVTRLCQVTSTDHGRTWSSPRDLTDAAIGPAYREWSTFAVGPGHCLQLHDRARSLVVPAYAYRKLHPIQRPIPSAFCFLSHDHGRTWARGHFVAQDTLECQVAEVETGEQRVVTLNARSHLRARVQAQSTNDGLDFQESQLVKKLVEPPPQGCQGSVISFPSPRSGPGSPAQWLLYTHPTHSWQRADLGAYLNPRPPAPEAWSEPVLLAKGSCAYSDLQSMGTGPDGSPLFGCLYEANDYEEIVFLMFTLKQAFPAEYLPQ
VcSialidase, sequence (P0C6E9 25-781): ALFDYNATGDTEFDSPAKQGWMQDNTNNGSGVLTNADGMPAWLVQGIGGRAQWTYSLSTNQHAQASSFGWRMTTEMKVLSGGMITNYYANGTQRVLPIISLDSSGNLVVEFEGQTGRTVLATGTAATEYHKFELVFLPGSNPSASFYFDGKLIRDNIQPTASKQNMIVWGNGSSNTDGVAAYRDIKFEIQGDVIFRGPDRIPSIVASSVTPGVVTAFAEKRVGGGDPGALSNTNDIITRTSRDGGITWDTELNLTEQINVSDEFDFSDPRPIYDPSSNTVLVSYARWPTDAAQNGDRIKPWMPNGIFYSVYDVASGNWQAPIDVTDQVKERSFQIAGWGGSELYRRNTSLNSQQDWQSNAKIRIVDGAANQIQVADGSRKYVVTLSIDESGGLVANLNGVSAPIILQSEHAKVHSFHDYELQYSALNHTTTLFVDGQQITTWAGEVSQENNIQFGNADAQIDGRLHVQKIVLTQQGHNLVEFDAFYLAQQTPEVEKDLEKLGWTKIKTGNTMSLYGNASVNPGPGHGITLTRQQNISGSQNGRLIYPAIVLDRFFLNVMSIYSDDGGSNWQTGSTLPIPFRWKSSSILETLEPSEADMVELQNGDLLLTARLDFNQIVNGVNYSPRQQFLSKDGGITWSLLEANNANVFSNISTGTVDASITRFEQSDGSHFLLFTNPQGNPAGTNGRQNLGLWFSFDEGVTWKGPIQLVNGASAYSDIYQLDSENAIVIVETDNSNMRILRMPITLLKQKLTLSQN
SpNanB, sequence (Q54727 30-697): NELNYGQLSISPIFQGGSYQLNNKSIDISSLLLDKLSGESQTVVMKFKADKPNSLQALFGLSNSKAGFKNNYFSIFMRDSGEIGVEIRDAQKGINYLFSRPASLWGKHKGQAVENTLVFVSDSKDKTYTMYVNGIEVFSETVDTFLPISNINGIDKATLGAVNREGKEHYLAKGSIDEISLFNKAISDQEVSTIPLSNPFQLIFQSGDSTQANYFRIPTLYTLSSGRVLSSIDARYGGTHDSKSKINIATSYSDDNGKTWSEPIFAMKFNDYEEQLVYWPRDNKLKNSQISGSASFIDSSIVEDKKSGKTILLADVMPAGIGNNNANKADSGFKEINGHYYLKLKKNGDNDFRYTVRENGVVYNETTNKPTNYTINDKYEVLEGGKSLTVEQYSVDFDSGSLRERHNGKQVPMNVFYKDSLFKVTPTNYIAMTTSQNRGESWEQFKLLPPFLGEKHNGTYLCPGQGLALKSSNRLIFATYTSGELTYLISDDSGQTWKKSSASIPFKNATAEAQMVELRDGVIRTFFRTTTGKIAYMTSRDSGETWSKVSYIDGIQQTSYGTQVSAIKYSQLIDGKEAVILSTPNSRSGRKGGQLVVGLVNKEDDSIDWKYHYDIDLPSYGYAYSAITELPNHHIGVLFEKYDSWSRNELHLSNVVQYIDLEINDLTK
SpNanA, sequence (P62575 54-1035): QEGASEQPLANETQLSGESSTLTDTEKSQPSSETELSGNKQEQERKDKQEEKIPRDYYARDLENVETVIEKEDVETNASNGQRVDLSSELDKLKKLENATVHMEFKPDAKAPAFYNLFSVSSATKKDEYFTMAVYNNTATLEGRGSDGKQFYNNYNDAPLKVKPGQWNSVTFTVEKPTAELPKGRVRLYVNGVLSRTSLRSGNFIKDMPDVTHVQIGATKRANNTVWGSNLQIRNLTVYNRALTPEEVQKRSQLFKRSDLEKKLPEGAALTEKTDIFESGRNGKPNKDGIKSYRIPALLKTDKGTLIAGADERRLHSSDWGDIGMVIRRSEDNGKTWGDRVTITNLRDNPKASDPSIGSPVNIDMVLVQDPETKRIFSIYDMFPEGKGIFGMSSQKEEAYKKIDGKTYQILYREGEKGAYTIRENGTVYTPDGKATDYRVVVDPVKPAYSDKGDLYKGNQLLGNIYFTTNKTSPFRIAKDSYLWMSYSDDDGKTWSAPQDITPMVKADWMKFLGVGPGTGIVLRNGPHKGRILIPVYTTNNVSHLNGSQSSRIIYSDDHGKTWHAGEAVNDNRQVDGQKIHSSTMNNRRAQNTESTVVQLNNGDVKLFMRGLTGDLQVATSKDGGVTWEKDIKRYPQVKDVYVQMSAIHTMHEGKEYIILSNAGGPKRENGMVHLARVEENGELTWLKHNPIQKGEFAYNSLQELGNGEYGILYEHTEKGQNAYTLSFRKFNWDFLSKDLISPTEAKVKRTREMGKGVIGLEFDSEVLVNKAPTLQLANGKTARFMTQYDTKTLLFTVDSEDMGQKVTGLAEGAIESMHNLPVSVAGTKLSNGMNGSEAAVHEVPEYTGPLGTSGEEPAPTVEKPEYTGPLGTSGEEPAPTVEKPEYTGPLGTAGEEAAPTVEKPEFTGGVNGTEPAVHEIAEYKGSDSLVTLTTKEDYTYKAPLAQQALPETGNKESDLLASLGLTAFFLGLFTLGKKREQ
CpNanH, sequence (P10481 whole entry, looked up): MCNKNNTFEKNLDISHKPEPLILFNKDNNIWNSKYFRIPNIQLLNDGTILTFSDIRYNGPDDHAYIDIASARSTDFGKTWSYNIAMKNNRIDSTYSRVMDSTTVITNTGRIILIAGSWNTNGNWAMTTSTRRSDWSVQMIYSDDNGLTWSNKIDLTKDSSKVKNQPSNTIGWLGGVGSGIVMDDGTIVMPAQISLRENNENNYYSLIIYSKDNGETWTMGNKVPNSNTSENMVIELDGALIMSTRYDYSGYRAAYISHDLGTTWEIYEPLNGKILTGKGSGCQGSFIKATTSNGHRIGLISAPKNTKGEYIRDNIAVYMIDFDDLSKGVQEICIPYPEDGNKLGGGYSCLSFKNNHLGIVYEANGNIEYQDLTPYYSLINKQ

As for `CC(=O)N[C@H]1[C@H]([C@H](O)[C@H](O)CNC(=O)C2CC2)OC(C(=O)O)=C[C@@H]1O` [compound 13, Neu5Ac9NCyclopro2en], the IC50 worked out at 6.8 ± 0.2 µM at SpNanA and 29 ± 2 µM on BiNanH2. Besides, the “inhibitory activity against AuSialidase (in words)” value against AuSialidase is “lowered the inhibitory activity”. Besides, the “selectivity against viral sialidases” value with viral sialidases is on record as “higher selectivity”. The “inhibitory activity against PmST1 (in words)” value against PmST1 is recorded as “not effective inhibitors”. Moreover, on SpNanB, the “inhibitory activity against SpNanB (in words)” value is reported as “not effective inhibitors”. Also, the “inhibitory activity against CpNanH (in words)” value against CpNanH is “not effective inhibitors”. The “inhibitory activity against hNEU2 (in words)” value in experiment [1] is listed as “lowered the inhibitory activity”. Further, the “inhibitory activity against SpNanC (in words)” value in the experiment on SpNanC is reported as “not effective inhibitors”. The “inhibitory activity against VcSialidase (in words)” value against VcSialidase is on record as “lowered the inhibitory activity”.
For `CCCCC(=O)NC[C@@H](O)[C@@H](O)[C@@H]1OC(C(=O)O)=C[C@H](O)[C@H]1NC(C)=O` [compound 12, Neu5Ac9NPent2en], the IC50 stood at 10.5 ± 0.5 µM at SpNanA and 34 ± 2 µM at BiNanH2. Also, at AuSialidase, the “inhibitory activity against AuSialidase (in words)” value is “lowered the inhibitory activity”. Besides, the “inhibitory activity against PmST1 (in words)” value against PmST1 is reported as “not effective inhibitors”. The “inhibitory activity against SpNanB (in words)” value on SpNanB is reported as “not effective inhibitors”. Besides, the “inhibitory activity against CpNanH (in words)” value against CpNanH is listed as “not effective inhibitors”. In addition, the “inhibitory activity against hNEU2 (in words)” value in experiment [1] was “lowered the inhibitory activity”. Further, the “inhibitory activity against SpNanC (in words)” value with SpNanC was “not effective inhibitors”. The “selectivity against human NEU1” value in the experiment with human NEU1 is “improved selectivity”. Moreover, at VcSialidase, the “inhibitory activity against VcSialidase (in words)” value is given as “lowered the inhibitory activity”.

The values are drawn from article PMC5920526 (ACS catalysis, 2017).
